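Growth conditions: 96-well plates. Treatment: test compound, 48 hours, 5 concentrations. Analysis: linear interpolation between bracketing concentrations; unreached endpoints set to highest concentration. GI50: concentration for 50% inhibition of growth.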 Activity calls are given as the source filed them. Cut-off read from the data, not from the text of the source: active = GI50 up to about 1.1 µM and inactive = higher.
Experiments:
Assay in all cases: NCI anticancer screen, dose series, 48 h
UACC-257 = test system: UACC-257
BT-549 = test system: BT-549
ACHN = test system: ACHN
SK-MEL-28 = test system: SK-MEL-28
A549 = test system: A549
SR = test system: SR
SN12C = test system: SN12C
K562 = test system: K562
COLO 205 = test system: COLO 205
UACC-62 = test system: UACC-62
SF-539 = test system: SF-539
SK-MEL-5 = test system: SK-MEL-5
KM12 = test system: KM12
TK-10 = test system: TK-10
EKVX = test system: EKVX
HOP-92 = test system: HOP-92
SNB-19 = test system: SNB-19
NCI-H460 = test system: NCI-H460
DU-145 = test system: DU-145
HCC 2998 = test system: HCC 2998

Measured: GI50

CN(C)Cc1ccc(O)c(CN(C)C)n1
inactive: UACC-257 > 100 µM | BT-549 > 100 µM | ACHN > 100 µM | SK-MEL-28 > 100 µM | A549 > 100 µM | SR > 100 µM | SN12C > 100 µM | K562 > 100 µM | COLO 205 > 100 µM | UACC-62 > 100 µM | SF-539 > 100 µM | SK-MEL-5 > 100 µM | KM12 > 100 µM | TK-10 > 100 µM | EKVX > 100 µM | HOP-92 > 100 µM | SNB-19 > 100 µM | NCI-H460 > 100 µM | DU-145 > 100 µM

C=CC(C)(C)c1c(OC)oc2ccc(OC)c(C)c2c1=O
inactive: UACC-257 > 100 µM | BT-549 90.2 µM | ACHN > 100 µM | HCC 2998 > 100 µM | SK-MEL-28 > 100 µM | A549 > 100 µM | SR 84.1 µM | SN12C > 100 µM | K562 78.2 µM | COLO 205 > 100 µM | UACC-62 > 100 µM | SF-539 > 100 µM | SK-MEL-5 61.7 µM | KM12 > 100 µM | TK-10 > 100 µM | EKVX > 100 µM | SNB-19 > 100 µM | NCI-H460 > 100 µM | DU-145 > 100 µM

Cn1nnc2c3c(N(CCO)CCO)ccnc3ccc21
inactive: UACC-257 > 100 µM | BT-549 > 100 µM | ACHN > 100 µM | HCC 2998 29.7 µM | A549 > 100 µM | SR 19.1 µM | SN12C > 100 µM | K562 > 100 µM | COLO 205 95.9 µM | UACC-62 > 100 µM | SF-539 99.5 µM | SK-MEL-5 > 100 µM | KM12 97.5 µM | TK-10 > 100 µM | EKVX > 100 µM | SNB-19 49.1 µM | NCI-H460 39.9 µM | DU-145 > 100 µM

O=C(OCC1OC2OC(c3ccccc3)(n3ccc4c([N+](=O)[O-])ccnc43)OC2C1OC(=O)c1ccccc1)c1ccccc1 (stereo not given)
inactive: UACC-257 > 100 µM | BT-549 > 100 µM | ACHN > 100 µM | HCC 2998 > 100 µM | SK-MEL-28 > 100 µM | A549 > 100 µM | SR > 100 µM | SN12C > 100 µM | K562 > 100 µM | UACC-62 > 100 µM | SK-MEL-5 > 100 µM | KM12 > 100 µM | TK-10 > 100 µM | EKVX > 100 µM | HOP-92 > 100 µM | SNB-19 > 100 µM | NCI-H460 > 100 µM | DU-145 > 100 µM

CCOC(=O)C(Cc1ccc(OC(=O)OC(C)(C)C)cc1)NC(=O)OC(C)(C)C (stereo not given)
inactive: UACC-257 21.3 µM | BT-549 > 100 µM | ACHN 74.1 µM | HCC 2998 30.3 µM | SK-MEL-28 > 100 µM | A549 > 100 µM | SR 26.4 µM | SN12C 44.8 µM | K562 76.4 µM | COLO 205 39.7 µM | UACC-62 > 100 µM | SF-539 44.8 µM | SK-MEL-5 > 100 µM | KM12 70.6 µM | TK-10 71.1 µM | EKVX > 100 µM | SNB-19 > 100 µM | NCI-H460 > 100 µM | DU-145 30.5 µM

CCC1([N+](=O)[O-])CN(N=O)C1
inactive: UACC-257 > 100 µM | BT-549 > 100 µM | ACHN > 100 µM | SK-MEL-28 > 100 µM | A549 > 100 µM | SR > 100 µM | SN12C > 100 µM | K562 > 100 µM | COLO 205 > 100 µM | UACC-62 > 100 µM | SF-539 > 100 µM | SK-MEL-5 > 100 µM | KM12 > 100 µM | TK-10 > 100 µM | EKVX > 100 µM | HOP-92 34.4 µM | SNB-19 > 100 µM | NCI-H460 > 100 µM | DU-145 > 100 µM

O=Nc1c(-c2cccc([N+](=O)[O-])c2)nc2cnccn12
inactive: UACC-257 19.7 µM | BT-549 27.9 µM | ACHN 3.63 µM | SK-MEL-28 21.5 µM | A549 29.5 µM | SR 2.2 µM | SN12C 24.4 µM | K562 18.3 µM | COLO 205 20 µM | UACC-62 18.5 µM | SF-539 20.3 µM | SK-MEL-5 29.4 µM | KM12 30.9 µM | TK-10 5.04 µM | EKVX 34 µM | HOP-92 20 µM | SNB-19 > 100 µM | NCI-H460 33.9 µM | DU-145 16.4 µM

COC(=O)c1cc(/C=C\c2cc(OC)ccc2OC)ccc1OC
inactive: UACC-257 30.5 µM | BT-549 31.2 µM | ACHN 32.1 µM | HCC 2998 22.4 µM | SK-MEL-28 18.4 µM | A549 32.1 µM | SR 10.4 µM | SN12C 38.2 µM | K562 6.5 µM | COLO 205 21.2 µM | UACC-62 22.6 µM | SF-539 38.5 µM | SK-MEL-5 17.7 µM | KM12 29.2 µM | TK-10 50.8 µM | EKVX 26.1 µM | SNB-19 34 µM | NCI-H460 51.2 µM | DU-145 26.9 µM

Source: ChEMBL document CHEMBL1201862, “PubChem BioAssay data set” (2004)
